In PMC11729419, “Thiol-Reactive or Redox-Active: Revising a Repurposing Screen Led to a New Invalidation Pipeline and Identified a True Noncovalent Inhibitor Against Papain-like Protease from SARS-CoV-2” (ACS Pharmacology & Translational Science, 2024):
Structures can show the parent of a compound that is named as a salt. Where two headings read alike, the source gives them in different places.

Columns and labels:
SARS-CoV-2 PLpro-NAB = SARS-CoV-2 PLpro-NAB (Severe acute respiratory syndrome coronavirus 2, UniProt P0DTD1); assay: biochemical; conditions: for Inhibition in L-cysteine buffer versus DTT buffer (dose-response): 1 mM L-cysteine vs 1 mM DTT; for Inhibitory activity on retest in 1 mM L-cysteine: 50% inhibition at 20 μM
[1] = Table S1, 20 µM, DTT buffer
SARS-CoV-2 Mpro = SARS-CoV-2 Mpro (Severe acute respiratory syndrome coronavirus 2, UniProt P0DTD1); format: biochemical; conditions: 10 μM; 1 mM DTT
SARS-CoV-2 PLpro = SARS-CoV-2 PLpro (Severe acute respiratory syndrome coronavirus 2, UniProt P0DTD1); format: biochemical; conditions: dose-response, ISG15 substrate
[2] = Table S1, 20 µM, DTT buffer, average (SD)
[3] = Table S1, 20 µM, L-cysteine buffer, average (SD)
[4] = Table S1, DTT buffer, read-out: HP PLpro-NAB SARS-CoV-2 IC50 [µM] triplicates DTT BUFFER
[5] = Table S1, L-cysteine buffer, read-out: HP PLpro-NAB SARS-CoV-2 IC50 [µM] duplicates L-CYS BUFFER
[6] = read-out: HP PLpro-NAB SARS-CoV-2 inhibition [%] 20 µM triplicates L-CYS BUFFER

Compound: O=C1C(Cl)=C(NCCN2CCOCC2)C(=O)c2ncccc21 [NSC-663284 (FhG)]
- HC PLpro-NAB SARS-CoV-2 inhibition [%] 20 µM triplicates DTT BUFFER (SARS-CoV-2 PLpro-NAB; [2]): 150.90 (0.34) %
- HC PLpro-NAB SARS-CoV-2 inhibition [%] 20 µM triplicates DTT BUFFER (SARS-CoV-2 PLpro-NAB; Table S1, 20 µM, DTT buffer, average (SD), listed as NSC 663284 (EOS)): 168.59 (3.49) %
- HP PLpro-NAB SARS-CoV-2 inhibition [%] 20 µM triplicates L-CYS BUFFER (SARS-CoV-2 PLpro-NAB; [3]): 7.56 (11.27) %
- HP PLpro-NAB SARS-CoV-2 inhibition [%] 20 µM triplicates L-CYS BUFFER (SARS-CoV-2 PLpro-NAB; Table S1, 20 µM, L-cysteine buffer, average (SD), listed as NSC 663284 (EOS)): -38.39 (8.32) %
- IC50 (SARS-CoV-2 PLpro-NAB; Table S1, DTT buffer, listed as NSC 663284 (EOS), read-out: HP PLpro-NAB SARS-CoV-2 IC50 [µM] triplicates DTT BUFFER): 2.15 µM
- IC50 (SARS-CoV-2 PLpro-NAB; [4]): 0.22 µM
- IC50 (SARS-CoV-2 PLpro-NAB; [5]): > 20 µM
- Interference inhibition [%] 20 µM based on product interference DTT BUFFER [1]: -0.99%
- Interference inhibition [%] 20 µM based on product interference DTT BUFFER ([1]; listed as NSC 663284 (EOS)): 14.95%

Compound: Nc1ccc(O)c2ncccc12 [PD119507]
- Interference inhibition [%] 20 µM based on product interference DTT BUFFER [1]: 3.43%

Compound: N#CSc1cc(SC#N)c(N)nc1N [PR-619]
- Inhibition of Mpro (SARS-CoV-2 Mpro): inhibition of both proteases from SARS-CoV-2
- Interference inhibition [%] 20 µM based on product interference DTT BUFFER [1]: -14.28%

Compound: Cc1cc(-c2ccc(/C=C3/SC(=Nc4ccc(Cl)c(C(=O)O)c4)NC3=O)o2)c([N+](=O)[O-])cc1C [PT 1]
- Interference inhibition [%] 20 µM based on product interference DTT BUFFER [1]: 9.93%

Compound: CC[N+](C)(CC)CCC[n+]1c(-c2ccccc2)c2cc(N)ccc2c2ccc(N)cc21.[I-].[I-] [Propidium-Iodide]
- Interference inhibition [%] 20 µM based on product interference DTT BUFFER [1]: 0.27%

Compound: O=c1ccc2[n+]([O-])c3ccc(O)cc3oc-2c1 [Resazurin (sodium salt), Resazurin]
- inhibition at 20 µM (SARS-CoV-2 PLpro-NAB; read-out: HC PLpro-NAB SARS-CoV-2 inhibition [%] 20 µM triplicates DTT BUFFER): 72.9%
- inhibition at 20 µM (SARS-CoV-2 PLpro-NAB; [6]): -36.5%
- Interference inhibition [%] 20 µM based on product interference DTT BUFFER [1]: 11.91%

Compound: O=C(O)c1c(Cl)c(Cl)c(Cl)c(Cl)c1-c1c2cc(I)c(=O)c(I)c-2oc2c(I)c(O)c(I)cc12 [Rose Bengal Sodium]
- inhibition at 20 µM (SARS-CoV-2 PLpro-NAB; Table S1, 20 µM, DTT buffer, average (SD), read-out: HC PLpro-NAB SARS-CoV-2 inhibition [%] 20 µM triplicates DTT BUFFER): 107%
- inhibition at 20 µM (SARS-CoV-2 PLpro-NAB; Table S1, 20 µM, L-cysteine buffer, average (SD), read-out: HP PLpro-NAB SARS-CoV-2 inhibition [%] 20 µM triplicates L-CYS BUFFER): -32.4%
- IC50 (SARS-CoV-2 PLpro-NAB; [4]): > 20 µM
- IC50 (SARS-CoV-2 PLpro-NAB; [5]): > 20 µM
- Interference inhibition [%] 20 µM based on product interference DTT BUFFER [1]: 12.07%

Compound: O=C(Nc1ccccc1-c1cn2c(CN3CCNCC3)csc2n1)c1cnc2ccccc2n1 [SRT 1720]
- Interference inhibition [%] 20 µM based on product interference DTT BUFFER [1]: 22.23%

Compound: Cc1c(S(=O)(=O)O)oc2c1C(=O)C(=O)c1c-2ccc2c1CCCC2(C)C [Sodium-Tanshinone-ii-A-Sulfonate]
- inhibition at 20 µM (SARS-CoV-2 PLpro-NAB; [6]): -51.9%
- Interference inhibition [%] 20 µM based on product interference DTT BUFFER [1]: -7.60%

Compound: CN(C)CCNc1nc2cc(O)ccc2c2c1C(=O)c1ccccc1-2.Cl.Cl [TAS-103 (dihydrochloride)]
- Interference inhibition [%] 20 µM based on product interference DTT BUFFER [1]: 1.87%

Compound: COCCn1c2c([n+](Cc3cnccn3)c1C)C(=O)c1ccccc1C2=O [YM-155]
- Interference inhibition [%] 20 µM based on product interference DTT BUFFER [1]: -0.69%

Compound: O=c1c(O)cccc2cc(O)c(O)c(O)c12 [purpurogallin]
- Potency against PLpro compared with PLpro-NAB (SARS-CoV-2 PLpro): higher potency against PLpro compared with PLpro-NAB
- Inhibition in L-cysteine buffer versus DTT buffer (dose-response) (SARS-CoV-2 PLpro-NAB): increased inhibition
- Inhibitory activity on retest in 1 mM L-cysteine (SARS-CoV-2 PLpro-NAB): retained their inhibitory activity
- inhibition at 20 µM (SARS-CoV-2 PLpro-NAB; read-out: HC PLpro-NAB inhibition [%] 20 μM triplicates 1 mM DTT buffer): 62.8%
- inhibition at 20 µM (SARS-CoV-2 PLpro-NAB; read-out: HP PLpro-NAB inhibition [%] 20 μM triplicates 1 mM L-cys buffer): 101%
- Preference PLpro over Mpro (SARS-CoV-2 Mpro): preferential inhibition of PLpro over Mpro
- Interference inhibition [%] 20 µM based on product interference DTT BUFFER [1]: 12.84%

Compound: O=C(O)c1cc(O)c2c(c1)[C@H]([C@H]1c3cc(C(=O)O)cc(O)c3C(=O)c3c(O[C@@H]4O[C@H](CO)[C@@H](O)[C@H](O)[C@H]4O)cccc31)c1cccc(O[C@@H]3O[C@H](CO)[C@@H](O)[C@H](O)[C@H]3O)c1C2=O [sennoside A]
- Inhibition in L-cysteine buffer versus DTT buffer (dose-response) (SARS-CoV-2 PLpro-NAB): lost its inhibitory potency
- Inhibitory activity on retest in 1 mM L-cysteine (SARS-CoV-2 PLpro-NAB): retained their inhibitory activity
- Inhibition of Mpro (SARS-CoV-2 Mpro): inhibition of both proteases from SARS-CoV-2
- Interference inhibition [%] 20 µM based on product interference DTT BUFFER [1]: 1.69%

Compound: Bacitracin [Bacitracin (Zinc)]
- Interference inhibition [%] 20 µM based on product interference DTT BUFFER [1]: -1.67%

Compound: Chicago-Sky-Blue-6b
- Interference inhibition [%] 20 µM based on product interference DTT BUFFER [1]: -5.59%

Compound: Cyanocobalamin
- HC PLpro-NAB SARS-CoV-2 inhibition [%] 20 µM triplicates DTT BUFFER (SARS-CoV-2 PLpro-NAB; [2]): 141.27 (3.32) %
- HP PLpro-NAB SARS-CoV-2 inhibition [%] 20 µM triplicates L-CYS BUFFER (SARS-CoV-2 PLpro-NAB; [3]): 32.29 (7.95) %
- IC50 (SARS-CoV-2 PLpro-NAB; [4]): 2.9 µM
- IC50 (SARS-CoV-2 PLpro-NAB; [5]): > 20 µM
- Interference inhibition [%] 20 µM based on product interference DTT BUFFER [1]: 4.81%

Compound: Ro-08-2750
- Interference inhibition [%] 20 µM based on product interference DTT BUFFER [1]: 0.17%

Compound: Ryuvidine
- Interference inhibition [%] 20 µM based on product interference DTT BUFFER [1]: -2.15%

Compound: SF1670
- Interference inhibition [%] 20 µM based on product interference DTT BUFFER [1]: 9.17%

Compound: Walrycin B
- Interference inhibition [%] 20 µM based on product interference DTT BUFFER ([1]; listed as Walrycin B (EOS)): 8.01%
- Interference inhibition [%] 20 µM based on product interference DTT BUFFER ([1]; listed as Walrycin B (FhG)): 4.84%
